Measurements published in patent US20260022143A1, “Cyclic Peptide Inhibitors of IL-23” (JANSSEN PHARMACEUTICA NV, priority 2022, published 2026).
Starred links: 1 amine or outer side, 2 acyl side, 3 side chain; linkers in the order of their positions; H or OH if unused. Positions of bridges follow the written chain, without caps; N, C: chain ends. Non-standard residues stand in square brackets, D forms with d. Residues, ends and D or L forms follow the SMILES beside them. ξ: configuration not given here. *: point of attachment. Trp(7-(3-AcNH-Ph)) = CC(=O)Nc1cccc(-c2cccc3c(C[C@H](N)C(=O)O)c[nH]c23)c1; X41 = C[N+]1(CCCCCCCc2cn(-c3ccc(C[C@H](N[*:1])C(=O)[*:2])cc3)nn2)CCOCC1; Me3N+(CH2)2O(CH2)2O(CH2)2CO = C[N+](C)(C)CCOCCOCCC(=O)*; CH2CH2OCH2CH2OCH2CH2NMe3+ = C[N+](C)(C)CCOCCOCC*; Trp(7-Me) = Cc1cccc2c(C[C@H](N)C(=O)O)c[nH]c12; Abu(4-yl) = O=C([C@H](CC[*:3])N[*:1])[*:2]; 3Pal(5-Me) = Cc1cncc(C[C@H](N)C(=O)O)c1; 2Nal = N[C@@H](Cc1ccc2ccccc2c1)C(=O)O; AEF = NCCOc1ccc(C[C@H](N)C(=O)O)cc1; 3Pal = N[C@@H](Cc1cccnc1)C(=O)O; Ethyl(2-guanidino) = N=C(N)NCC*; Lys(Me) = CNCCCC[C@H](N)C(=O)O; Pen = CC(C)(S)[C@H](N)C(=O)O; ξLys(Me) = CNCCCCC(N)C(=O)O; αMeC = C[C@](N)(CS)C(=O)O; Thp = NC1(C(=O)O)CCOCC1; X3 = C[N+](C)(C)CCCCC*; Sar = CNCC(=O)O

Legend:
[1] = target: T1, IL-23R (Homo sapiens, UniProt Q5VWK5); assay: IL23R Reporter Assay; assay type: cell-based; details: HEK293 cells containing IL-23R, IL-12RP1 and STAT-inducible firefly luciferase reporter; 10 ng/mL IL-23 (EC90); 5 h at 37° C.; read-out: IL23R Reporter Assay
T1 construct: host or cells: HEK293
T1 sequence (Q5VWK5 24-629): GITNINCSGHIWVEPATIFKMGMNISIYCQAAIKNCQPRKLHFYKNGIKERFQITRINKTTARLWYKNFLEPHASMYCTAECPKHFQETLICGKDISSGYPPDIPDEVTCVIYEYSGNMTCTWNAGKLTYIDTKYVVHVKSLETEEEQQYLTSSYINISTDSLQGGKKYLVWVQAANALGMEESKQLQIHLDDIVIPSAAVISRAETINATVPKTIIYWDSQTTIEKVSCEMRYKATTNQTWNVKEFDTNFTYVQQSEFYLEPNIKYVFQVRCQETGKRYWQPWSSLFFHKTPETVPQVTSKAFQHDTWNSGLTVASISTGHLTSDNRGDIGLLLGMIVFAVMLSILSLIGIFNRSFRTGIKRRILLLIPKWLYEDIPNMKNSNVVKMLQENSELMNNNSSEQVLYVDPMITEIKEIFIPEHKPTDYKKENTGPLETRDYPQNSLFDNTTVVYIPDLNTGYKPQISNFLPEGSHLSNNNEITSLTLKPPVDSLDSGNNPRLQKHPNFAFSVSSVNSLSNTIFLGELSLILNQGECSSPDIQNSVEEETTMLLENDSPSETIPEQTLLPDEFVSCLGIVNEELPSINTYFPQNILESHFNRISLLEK

[2] = Exposed Polar Surface Area (EPSA); assay type: physicochemical; details: SFC on Chirex 3014 column; sample 1 mM DMSO stock; read-out: EPSA
Method in brief: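 SFC retention on a Chirex 3014 (S-valine/(R)-1-(α-naphthyl)ethylamine) column at 35 °C, 4 mL/min, 14 MPa outlet, 5–60% methanol/20 mM ammonium formate gradient in CO2. Retention times converted to EPSA (Å²) via linear calibration with 8 standards; samples from 1 mM DMSO stock, run in duplicate.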

Row | IC50 [1] | EPSA [2] | SMILES
1 | 25 nM | 151 A^2 | CC(=O)N(C)CCCC[C@H](NC(=O)[C@H](C)NC(=O)[C@H](Cc1ccc2ccccc2c1)NC(=O)[C@H](Cc1ccc(OCCOCCOCC[N+](C)(C)C)cc1)NC(=O)[C@H]1NC(=O)[C@H](C)NC(=O)[C@H](Cc2c[nH]c3c(C)cccc23)NC(=O)[C@H]([C@@H](C)O)NC(=O)[C@H](C)NC(=O)[C@@H](NC(=O)CCOCCOCC[N+](C)(C)C)C(C)(C)SSC1(C)C)C(=O)N[C@@H](CC(N)=O)C(=O)N[C@@H](Cc1cccnc1)C(=O)N(C)CC(=O)N(C)C [compound 468, cPEG3aCO-Pen(3)-A-T-7MeW-A-Pen(3)-APEG3f-2Nal-A-K(NMeAc)-N-3Pya-Sar-CON(Me)2] ({Me3N+(CH2)2O(CH2)2O(CH2)2CO}-[Pen]AT[Trp(7-Me)]A[Pen]Y(CH2CH2OCH2CH2OCH2CH2NMe3+)[2Nal]A[Lys(Me)](Ac)N[3Pal][Sar]-NMe2; disulfide 1-6)
2 | 2.1 nM | 156 A^2 | CC(=O)N(C)CCCC[C@@H]1NC(=O)[C@H](Cc2c[nH]c3c(C)cccc23)NC(=O)[C@H]([C@@H](C)O)NC(=O)[C@H](CC(=O)N(C)C)NC(=O)[C@@H](NC(=O)CCOCCOCC[N+](C)(C)C)C(C)(C)SSC(C)(C)[C@@H](C(=O)N[C@@H](Cc2ccc(OCCOCCOCC[N+](C)(C)C)cc2)C(=O)N[C@@H](Cc2ccc3ccccc3c2)C(=O)NC2(C(=O)N[C@@H](Cc3ccccc3)C(=O)N[C@@H](CC(N)=O)C(=O)N[C@@H](Cc3cccnc3)C(=O)N(C)CC(=O)N(C)C)CCOCC2)NC1=O [compound 469, cPEG3aCO-Pen(3)-N(N(Me)2)-T-7MeW-K(NMeAc)-Pen(3)-APEG3F-2Nal-THP-F-N-3Pya-Sar-CON(Me)2] ({Me3N+(CH2)2O(CH2)2O(CH2)2CO}-[Pen]D(NMe2)T[Trp(7-Me)][Lys(Me)](Ac)[Pen]Y(CH2CH2OCH2CH2OCH2CH2NMe3+)[2Nal][Thp]FN[3Pal][Sar]-NMe2; disulfide 1-6)
3 | 1.2 nM | 160 A^2 | CC(=O)N(C)CCCC[C@@H]1NC(=O)[C@H](Cc2c[nH]c3c(C)cccc23)NC(=O)[C@H]([C@@H](C)O)NC(=O)[C@H](CC(=O)N(C)C)NC(=O)[C@@H](NC(=O)CCOCCOCC[N+](C)(C)C)C(C)(C)SSC(C)(C)[C@@H](C(=O)N[C@@H](Cc2ccc(OCCOCCOCC[N+](C)(C)C)cc2)C(=O)N[C@@H](Cc2ccc3ccccc3c2)C(=O)NC2(C(=O)N[C@@H](Cc3c[nH]c4ccccc34)C(=O)N[C@@H](CC(N)=O)C(=O)N[C@@H](Cc3cccnc3)C(=O)N(C)CC(=O)N(C)C)CCOCC2)NC1=O [compound 470, cPEG3aCO-Pen(3)-N(N(Me)2)-T-7MeW-K(NMeAc)-Pen(3)-APEG3F-2Nal-THP-W-N-3Pya-Sar-CON(Me)2] ({Me3N+(CH2)2O(CH2)2O(CH2)2CO}-[Pen]D(NMe2)T[Trp(7-Me)][Lys(Me)](Ac)[Pen]Y(CH2CH2OCH2CH2OCH2CH2NMe3+)[2Nal][Thp]WN[3Pal][Sar]-NMe2; disulfide 1-6)
4 | 0.69 nM | 174 A^2 | CC(=O)NCCCC[C@@H]1NC(=O)[C@H](Cc2c[nH]c3c(C)cccc23)NC(=O)[C@H]([C@@H](C)O)NC(=O)[C@H](CC(N)=O)NC(=O)[C@@H](NC(=O)CCOCCOCC[N+](C)(C)C)C(C)(C)SSC(C)(C)[C@@H](C(=O)N[C@@H](Cc2ccc(OCCNC(=N)N)cc2)C(=O)N[C@@H](Cc2ccc3ccccc3c2)C(=O)NC2(C(=O)N[C@@H](CCCCNC(C)=O)C(=O)N[C@@H](CC(N)=O)C(=O)N[C@@H](Cc3cccnc3)C(=O)N(C)CC(N)=O)CCOCC2)NC1=O [compound 471, cPEG3aCO-Pen(3)-N-T-7MeW-K(Ac)-Pen(3)-AEF(G)-2Nal-THP-K(Ac)-N-3Pya-Sar-CONH2] ({Me3N+(CH2)2O(CH2)2O(CH2)2CO}-[Pen]NT[Trp(7-Me)]K(Ac)[Pen]Y(Ethyl(2-guanidino))[2Nal][Thp]K(Ac)N[3Pal][Sar]-NH2; disulfide 1-6)
5 | 12 nM | 202 A^2 | CC(=O)NCCCC[C@@H]1NC(=O)[C@H](Cc2c[nH]c3c(C)cccc23)NC(=O)[C@H]([C@@H](C)O)NC(=O)[C@H](CC(N)=O)NC(=O)[C@@H](NC(=O)[C@@H](CCCNC(=N)N)NC(=O)CCOCCOCC[N+](C)(C)C)C(C)(C)SSC(C)(C)[C@@H](C(=O)N[C@@H](Cc2ccc(OCCN)cc2)C(=O)N[C@@H](Cc2ccc3ccccc3c2)C(=O)NC2(C(=O)N[C@@H](CCC(=O)O)C(=O)N[C@@H](CC(N)=O)C(=O)N[C@@H](Cc3cncc(C)c3)C(=O)N(C)CC(N)=O)CCOCC2)NC1=O [compound 473, cPEG3aCO-r-Pen(3)-N-T-7MeW-K(Ac)-Pen(3)-AEF-2Nal-THP-E-N-5MePyridinAla-Sar-CONH2] ({Me3N+(CH2)2O(CH2)2O(CH2)2CO}-[dR][Pen]NT[Trp(7-Me)]K(Ac)[Pen][AEF][2Nal][Thp]EN[3Pal(5-Me)][Sar]-NH2; disulfide 2-7)
6 | 1540 nM | 153 A^2 | CC(=O)N(C)CCCCC(NC(=O)C1(NC(=O)[C@H](Cc2ccc3ccccc3c2)NC(=O)[C@H](Cc2ccc(OCCOCCOCC[N+](C)(C)C)cc2)NC(=O)[C@@H]2CCSC[C@H](NC(=O)CCOCCOCC[N+](C)(C)C)C(=O)N[C@@H](CC(=O)N(C)C)C(=O)N[C@@H]([C@@H](C)O)C(=O)N[C@@H](Cc3c[nH]c4c(C)cccc34)C(=O)N[C@@H](CCCCN(C)C(C)=O)C(=O)N2)CCOCC1)C(=O)N[C@@H](CC(N)=O)C(=O)N[C@@H](Cc1ccccc1)C(=O)N(C)CC(=O)N(C)C (stereo partly drawn) [compound 475, cPEG3aCO-Abu(1)-N(N(Me)2)-T-7MeW-K(NMeAc)-C(1)-APEG3F-2Nal-THP-K(NMeAc)-N-F-Sar-CON(Me)2] ({Me3N+(CH2)2O(CH2)2O(CH2)2CO}-CD(NMe2)T[Trp(7-Me)][Lys(Me)](Ac)[Abu(4-yl)]Y(CH2CH2OCH2CH2OCH2CH2NMe3+)[2Nal][Thp][ξLys(Me)](Ac)NF[Sar]-NMe2; thioether 1-6)
7 | > 2590 nM | 155 A^2 | CC(=O)N(C)CCCCC(NC(=O)C1(NC(=O)[C@H](Cc2ccc3ccccc3c2)NC(=O)[C@H](Cc2ccc(OCCOCCOCC[N+](C)(C)C)cc2)NC(=O)[C@@H]2CSCC[C@H](NC(=O)CCOCCOCC[N+](C)(C)C)C(=O)N[C@@H](CC(=O)N(C)C)C(=O)N[C@@H]([C@@H](C)O)C(=O)N[C@@H](Cc3c[nH]c4c(C)cccc34)C(=O)N[C@@H](CCCCN(C)C(C)=O)C(=O)N2)CCOCC1)C(=O)N[C@@H](CC(N)=O)C(=O)N[C@@H](C)C(=O)N(C)CC(=O)N(C)C (stereo partly drawn) [compound 476, cPEG3aCO-Abu(1)-N(N(Me)2)-T-7MeW-K(NMeAc)-C(1)-APEG3F-2Nal-THP-K(NMeAc)-N-A-Sar-CON(Me)2] ({Me3N+(CH2)2O(CH2)2O(CH2)2CO}-[Abu(4-yl)]D(NMe2)T[Trp(7-Me)][Lys(Me)](Ac)CY(CH2CH2OCH2CH2OCH2CH2NMe3+)[2Nal][Thp][ξLys(Me)](Ac)NA[Sar]-NMe2; thioether 1-6)
8 | 6.1 nM | 166 A^2 | CC(=O)NCCCC[C@@H]1NC(=O)[C@H](Cc2c[nH]c3c(-c4cccc(NC(C)=O)c4)cccc23)NC(=O)[C@H]([C@@H](C)O)NC(=O)[C@H](CC(N)=O)NC(=O)[C@@H](NC(C)=O)CCSC[C@@](C)(C(=O)N[C@@H](Cc2ccc(OCCCCC[N+](C)(C)C)cc2)C(=O)N[C@@H](Cc2ccc3ccccc3c2)C(=O)NC2(C(=O)N[C@@H](CCCCNC(C)=O)C(=O)N[C@@H](CC(N)=O)C(=O)N[C@@H](Cc3cccnc3)C(=O)N(C)CC(N)=O)CCOCC2)NC1=O [compound 477, MeCO-Abu(1)-N-T-7(3NAcPh)W-K(Ac)-aMeC(1)-TMAPF-2Nal-THP-K(Ac)-N-3Pya-Sar-CONH2] (Ac-[Abu(4-yl)]NT[Trp(7-(3-AcNH-Ph))]K(Ac)[αMeC]Y(X3)[2Nal][Thp]K(Ac)N[3Pal][Sar]-NH2; thioether 1-6)
9 | 3.4 nM | 158 A^2 | CC(=O)N(C)CCCC[C@@H]1NC(=O)[C@H](Cc2c[nH]c3c(C)cccc23)NC(=O)[C@H]([C@@H](C)O)NC(=O)[C@H](CC(=O)N(C)C)NC(=O)[C@@H](NC(=O)CCOCCOCC[N+](C)(C)C)C(C)(C)SSC(C)(C)[C@@H](C(=O)N[C@@H](Cc2ccc(-n3cc(CCCCCCC[N+]4(C)CCOCC4)nn3)cc2)C(=O)N[C@@H](Cc2ccc3ccccc3c2)C(=O)NC2(C(=O)N[C@@H](CCCCN(C)C(C)=O)C(=O)N[C@@H](CC(N)=O)C(=O)N[C@@H](Cc3cccnc3)C(=O)N(C)CC(=O)N(C)C)CCOCC2)NC1=O [compound 479, cPEG3aCO-Pen(3)-N(N(Me)2)-T-7MeW-K(NMeAc)-Pen(3)-F(4TzIMMo7)-2Nal-THP-K(NMeAc)-N-3Pya-Sar-CON(Me)2] ({Me3N+(CH2)2O(CH2)2O(CH2)2CO}-[Pen]D(NMe2)T[Trp(7-Me)][Lys(Me)](Ac)[Pen][X41][2Nal][Thp][Lys(Me)](Ac)N[3Pal][Sar]-NMe2; disulfide 1-6)
